From patent publication US5409933A, “Quinoline derivatives and processes for preparing the same” (priority 1993, dated 1995)
Where a name gives a salt, the structure may show the parent alone. Read-outs that look alike come from different tables or passages of the source.

Tests used:
Experiment in all cases: In Vitro Anti-Bacterial Activity Test (MIC, agar dilution)
Assay type in all cases: cell-based
Klebsiella oxytoca 1082E = details: Klebsiella oxytoca 1082E; Muller-Hinton agar, 37° C., 18 hours; read-out: MIC
In short: (§1)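 Each strain, at 10^7 C.F.U./ml, was spotted onto Muller-Hinton agar carrying serial compound dilutions. Growth after an 18-hour incubation at 37° C. defined the minimum inhibitory concentration.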

[1] = test system: Staphylococcus aureus 503; details: Staphylococcus aureus 503; Muller-Hinton agar, 37° C., 18 hours; read-out: MIC
In short: as §1

[2] = test system: Streptococcus pyogenes 77A; details: Streptococcus pyogenes 77A; Muller-Hinton agar, 37° C., 18 hours; read-out: MIC
In short: as §1

Escherichia coli TEM = details: Escherichia coli, 18 h, Muller-Hinton agar, 37° C.
In short: (§2)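 Bacterial suspensions of 10^7 C.F.U./ml are inoculated onto Muller-Hinton agar containing graded compound levels. After 18 hours at 37° C., the lowest level showing no growth is recorded as MIC.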

[3] = test system: Pseudomonas aeruginosa 1592E; details: Muller-Hinton agar, 37° C., 18 hours, read-out: MIC
In short: as §1

[4] = test system: Enterobacter cloacae 1321E; details: Enterobacter cloacae 1321E; Muller-Hinton agar, 37° C., 18 hours; read-out: MIC
In short: as §1

[5] = test system: Pseudomonas aeruginosa 1771; details: Pseudomonas aeruginosa 1771; Muller-Hinton agar, 37° C., 18 hours; read-out: MIC
In short: as §1

[6] = test system: Staphylococcus aureus 285; details: Staphylococcus aureus, 285, 18 h, Staphylococcus aureus 285; Muller-Hinton agar, 37° C., 18 hours; read-out: MIC
In short: as §1

[7] = test system: Pseudomonas aeruginosa 1771M; details: Pseudomonas aeruginosa, 1771M, 18 h, Muller-Hinton agar, 37° C.
In short: as §1

[8] = test system: Klebsiella aerogenes 1522E; details: Klebsiella aerogenes, 1522E, 18 h, Klebsiella aerogenes 1522E; Muller-Hinton agar, 37° C., 18 hours; read-out: MIC
In short: as §1

Salmonella typhimurium = details: Salmonella enterica
In short: as §1

Escherichia coli DC2 = test system: Escherichia coli DC2
In short: as §1

Escherichia coli 1507E = details: Muller-Hinton agar, 37° C.
In short: as §1

[9] = test system: Streptococcus pyogenes 308A; details: Muller-Hinton agar, 37° C., 18 hours, read-out: MIC
In short: as §1

[10] = test system: Streptococcus faecium MD8b; details: Enterococcus faecium, Muller-Hinton agar, 37° C., 18 hours, read-out: MIC
In short: as §1

[11] = test system: Staphylococcus aureus SG511; details: Staphylococcus aureus SG511; Muller-Hinton agar, 37° C., 18 hours; read-out: MIC
In short: as §1

Escherichia coli DC0 = details: Muller-Hinton agar, 37° C., 18 hours, read-out: MIC
In short: as §1

Escherichia coli 078 = test system: Escherichia coli 078
In short: as §1

Enterobacter cloacae P99 = details: Enterobacter cloacae, P99, 18 h
In short: as §2

[12] = test system: Pseudomonas aeruginosa 9027; details: Muller-Hinton agar, 37° C., 18 hours, read-out: MIC
In short: as §1

[13] = Salmonella typhimurium, Muller-Hinton agar, 37° C., 18 hours, read-out: MIC
[14] = Escherichia coli 078, Muller-Hinton agar, 37° C., 18 hours, read-out: MIC

For `C[C@@H]1CN(c2c(F)c(N)c3c(=O)c(C(=O)C[N+](=O)[O-])cn(C4CC4)c3c2F)C[C@H](C)N1` [Example 14, 1-cyclopropyl-5-amino-6,8-difluoro-7-(3,5-cis-dimethylpiperazin-1-yl)-3-(2-nitroacetyl)-1,4-dihydro-4-oxoquinoline hydrochloride], the MIC (Klebsiella oxytoca 1082E) was < 2 ng/mL, the MIC [1] was 0.049 µg/mL and the MIC [2] was 0.195 µg/mL. The MIC (Escherichia coli TEM) was 7 ng/mL, the MIC [3] was 0.781 µg/mL and the MIC [4] was < 0.002 µg/mL. It also gave an MIC [5] of 0.391 µg/mL, an MIC [6] of 0.098 µg/mL and an MIC [7] of 0.195 µg/mL. For the same molecule, the MIC [8] was 0.025 µg/mL, the MIC (Salmonella typhimurium; [13]) was < 2 ng/mL and the MIC (Escherichia coli DC2; Escherichia coli, DC2, 18 h) was 0.049 µg/mL. The MIC (Escherichia coli 1507E; Escherichia coli, 1507E, 18 h) was 0.013 µg/mL, the MIC [9] was 1.56 µg/mL and the MIC [10] was 0.391 µg/mL. The MIC [11] was 0.098 µg/mL, the MIC (Escherichia coli DC0) was 0.098 µg/mL and the MIC (Escherichia coli 078; [14]) was < 2 ng/mL. For the same molecule, the MIC (Enterobacter cloacae P99) was 0.007 µg/mL and the MIC [12] was 0.781 µg/mL.

With `NC1CCN(c2nc3c(cc2F)c(=O)c(C(=O)C[N+](=O)[O-])cn3-c2ccc(F)cc2F)C1` (stereo not shown) [Example 8, 1-(2,4-difluorophenyl)-6-fluoro-7-(3-aminopyrrolidin-1-yl)-3-(2-nitroacetyl)-1,4-dihydro-4-oxo-1,8-naphthyridinehydrochloride] the MIC (Klebsiella oxytoca 1082E) was < 2 ng/mL, the MIC [1] was 0.025 µg/mL and the MIC [2] was 0.195 µg/mL. The MIC (Escherichia coli TEM) was < 2 ng/mL, the MIC [3] was 0.195 µg/mL and the MIC [4] was < 0.002 µg/mL. The MIC [5] was 0.391 µg/mL, the MIC [6] was 0.025 µg/mL and the MIC [7] was 0.049 µg/mL. For the same molecule, the MIC [8] was 0.007 µg/mL, the MIC (Salmonella typhimurium; [13]) was 7 ng/mL and the MIC (Escherichia coli DC2; Escherichia coli, DC2, 18 h) was 0.013 µg/mL. The MIC (Escherichia coli 1507E; Escherichia coli, 1507E, 18 h) was 0.007 µg/mL, the MIC [9] was 0.781 µg/mL and the MIC [10] was 0.391 µg/mL. For the same molecule, the MIC [11] was 0.049 µg/mL, the MIC (Escherichia coli DC0) was 0.195 µg/mL and the MIC (Escherichia coli 078; Escherichia coli, 078, 18 h) was 7 ng/mL. The MIC (Enterobacter cloacae P99) was < 0.002 µg/mL and the MIC [12] was 0.391 µg/mL.

`CNCC1=CCN(c2c(F)cc3c(=O)c(C(=O)CS(C)(=O)=O)cn(C4CC4)c3c2Cl)C1` [Example 46, 1-cyclopropyl-6-fluoro-8-chloro-7-(3-methylaminomethyl-2,5-dihydropyrrol-1-yl)-3-(2-methanesulfonylacetyl)-1,4-dihydro-4-oxoquinoline hydrochloride] was tested, and the MIC (Klebsiella oxytoca 1082E) was 13 ng/mL, the MIC [1] was 0.049 µg/mL and the MIC [2] was 0.391 µg/mL. The MIC (Escherichia coli TEM) was 49 ng/mL, the MIC [3] was 0.781 µg/mL and the MIC [4] was 0.049 µg/mL. For the same molecule, the MIC [5] was 1.56 µg/mL, the MIC [6] was 0.049 µg/mL and the MIC [7] was 0.195 µg/mL. The MIC [8] was 0.013 µg/mL, the MIC (Salmonella typhimurium; [13]) was 195 ng/mL and the MIC (Escherichia coli DC2; Escherichia coli, DC2, 18 h) was 0.098 µg/mL. For the same molecule, the MIC (Escherichia coli 1507E; Escherichia coli, 1507E, 18 h) was 0.098 µg/mL, the MIC [9] was 1.56 µg/mL and the MIC [10] was 0.195 µg/mL. The MIC [11] was 0.098 µg/mL, the MIC (Escherichia coli DC0) was 0.391 µg/mL and the MIC (Escherichia coli 078; Escherichia coli, 078, 18 h) was 25 ng/mL. The MIC (Enterobacter cloacae P99) was 0.098 µg/mL and the MIC [12] was 1.56 µg/mL.

`CCOC(=O)C(C(=O)OCC)C(=O)c1cn(C2CC2)c2cc(N3CCNCC3)c(F)cc2c1=O` [Example 18, 1-cyclopropyl-6-fluoro-7-(piperazin-1-yl)-3-(2,2-diethoxycarbonylacetyl)-1,4-dihydro-4-oxoquinoline hydrochloride] showed an MIC (Klebsiella oxytoca 1082E) of 4 ng/mL, an MIC [1] of 0.391 µg/mL and an MIC [2] of 0.781 µg/mL. The MIC (Escherichia coli TEM) was 7 ng/mL, the MIC [3] was 0.391 µg/mL and the MIC [4] was < 0.002 µg/mL. It also gave an MIC [5] of 0.195 µg/mL, an MIC [6] of 0.391 µg/mL and an MIC [7] of 0.049 µg/mL. The MIC [8] was 0.013 µg/mL, the MIC (Salmonella typhimurium; TYPHIMURIUM, 18 h) was 7 ng/mL and the MIC (Escherichia coli DC2; Escherichia coli, DC2, 18 h) was 0.098 µg/mL. It also gave an MIC (Escherichia coli 1507E; 18 hours, read-out: MIC) of 0.004 µg/mL, an MIC [9] of 3.12 µg/mL and an MIC [10] of 0.781 µg/mL. It also gave an MIC [11] of 0.195 µg/mL, an MIC (Escherichia coli DC0) of 0.195 µg/mL and an MIC (Escherichia coli 078; [14]) of 4 ng/mL. The MIC (Enterobacter cloacae P99) was < 0.002 µg/mL and the MIC [12] was 0.781 µg/mL.

Molecule `N#CCC(=O)c1cn(C2CC2)c2c(Cl)c(N3CCC(N)C3)c(F)cc2c1=O` (stereo not shown) [Example 42, 1-cyclopropyl-6-fluoro-8-chloro-7-(3-aminopyrrolidin-1-yl)-3-(2-cyanoacetyl)-1,4-dihydro-4-oxoquinoline hydrochloride] has an MIC (Klebsiella oxytoca 1082E) of 98 ng/mL, an MIC [1] of 3.12 µg/mL and an MIC [2] of 12.5 µg/mL. It also gave an MIC (Escherichia coli TEM) of 781 ng/mL, an MIC [3] of 12.5 µg/mL and an MIC [4] of 0.098 µg/mL. For the same molecule, the MIC [5] was 6.25 µg/mL, the MIC [6] was 3.12 µg/mL and the MIC [7] was 6.25 µg/mL. The MIC [8] was 1.56 µg/mL, the MIC (Salmonella typhimurium; [13]) was 1560 ng/mL and the MIC (Escherichia coli DC2; Escherichia coli DC2, Muller-Hinton agar, 37° C., 18 hours, read-out: MIC) was 3.12 µg/mL. It also gave an MIC (Escherichia coli 1507E; Escherichia coli, 1507E, 18 h) of 0.195 µg/mL, an MIC [9] of 25 µg/mL and an MIC [10] of 12.5 µg/mL. For the same molecule, the MIC [11] was 6.25 µg/mL, the MIC (Escherichia coli DC0) was 12.5 µg/mL and the MIC (Escherichia coli 078; Escherichia coli, 078, 18 h) was 98 ng/mL. It also gave an MIC (Enterobacter cloacae P99) of 0.781 µg/mL and an MIC [12] of 2.5 µg/mL.
